The text below walks through data of patent publication US20260070887A1 (Shenzhen Zhongge Biological Technology Co., Ltd., priority 2022, published 2026).

Data set [1] concerns the target KIF18A (Homo sapiens (Human), UniProt Q8NI77). The data set is described as follows: KIF18A ATPase activity under tubulin stimulation (ADP-Glo assay). The format is biochemical. The following applies: KIF18A 30 nM, ATP 150 μM, pig microtubules. On the technique in general: ADP-Glo first removes unused ATP, then detects ADP through luciferase.
For data set [2], the system named is OVCAR-3 cells. The data set is described as follows: OVCAR-3 cell proliferation (Cell Titer-Glo, 10 days). The format is cell-based, human. An outline of the steps: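 400 cells per well were seeded onto pre-dispensed compound (final 0.12 nM to 10 μM) in RPMI-1640 with 20% FBS and insulin, then co-cultured for 10 days. Viability was read as Cell Titer-Glo luminescence, inhibition was taken against 0.1% DMSO control, and IC50 came from nonlinear concentration-inhibition regression.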
(Cellular ATP, detected with luciferase, serves as a proxy for viable cell number.)

Data set [3] in a line: PK study in ICR mice. The format is in vivo, mouse. The note with it: both sexes, mouse, plasma, route and dose not given. The protocol: 6 ICR mice (male/female) were divided into two groups, administered orally and intravenously, respectively, with 3 mice/group. The mice were fasted for 10-14 hours prior to dosing with free access to water.
The test compound was weighed according to the administration dose, and prepared into a dose formulation at appropriate concentrations (for rats and mice, intravenous and oral administration at a volume of 5 mL/kg and 10 mL/kg, respectively), wherein the intravenous injection was a clear solution, and the oral preparation was a clear solution or a homogeneous suspension.
Animals were dosed by intravenous injection and oral gavage, and blood samples were collected at 0.033, 0.083, 0.25, 0.5, 1, 2, 4, 8, and 24 h after intravenous administration and 0.083, 0.25, 0.5, 1, 2, 4, 6, 8, and 24 h after oral administration. Whole blood was centrifuged at 6800 g for 6 min at 4° C. and the top plasma was stored in a −80° C. freezer for later analysis.
The DMSO stock solution of the test compound was diluted into a series of working solutions with a methanol or an acetonitrile solution, and added to a blank plasma matrix, and standard curves were generated and quality control samples were prepared. An appropriate volume of the plasma sample was taken and a suitable multiple of methanol or acetonitrile containing an internal standard was added for protein precipitation based on the response. After centrifugation of all samples at 18000 g for 10 min at 4° C., an appropriate amount of supernatant was taken for LC-MS/MS injection analysis.
Drug concentration-time curves in plasma were plotted according to test concentrations, and pharmacokinetic parameters were calculated using noncompartmental analysis by WinNonlin software, including: half-life (T½), area under the concentration-time curve from time zero to time t (AUCO-t), clearance (CL), volume of distribution at steady state (Vss) and bioavailability (F), with some of the test results shown in Table 4.

Read-outs that look alike come from different tables or passages of the source. Some results are limits rather than exact numbers.

KIF18A, sequence (Q8NI77 whole entry): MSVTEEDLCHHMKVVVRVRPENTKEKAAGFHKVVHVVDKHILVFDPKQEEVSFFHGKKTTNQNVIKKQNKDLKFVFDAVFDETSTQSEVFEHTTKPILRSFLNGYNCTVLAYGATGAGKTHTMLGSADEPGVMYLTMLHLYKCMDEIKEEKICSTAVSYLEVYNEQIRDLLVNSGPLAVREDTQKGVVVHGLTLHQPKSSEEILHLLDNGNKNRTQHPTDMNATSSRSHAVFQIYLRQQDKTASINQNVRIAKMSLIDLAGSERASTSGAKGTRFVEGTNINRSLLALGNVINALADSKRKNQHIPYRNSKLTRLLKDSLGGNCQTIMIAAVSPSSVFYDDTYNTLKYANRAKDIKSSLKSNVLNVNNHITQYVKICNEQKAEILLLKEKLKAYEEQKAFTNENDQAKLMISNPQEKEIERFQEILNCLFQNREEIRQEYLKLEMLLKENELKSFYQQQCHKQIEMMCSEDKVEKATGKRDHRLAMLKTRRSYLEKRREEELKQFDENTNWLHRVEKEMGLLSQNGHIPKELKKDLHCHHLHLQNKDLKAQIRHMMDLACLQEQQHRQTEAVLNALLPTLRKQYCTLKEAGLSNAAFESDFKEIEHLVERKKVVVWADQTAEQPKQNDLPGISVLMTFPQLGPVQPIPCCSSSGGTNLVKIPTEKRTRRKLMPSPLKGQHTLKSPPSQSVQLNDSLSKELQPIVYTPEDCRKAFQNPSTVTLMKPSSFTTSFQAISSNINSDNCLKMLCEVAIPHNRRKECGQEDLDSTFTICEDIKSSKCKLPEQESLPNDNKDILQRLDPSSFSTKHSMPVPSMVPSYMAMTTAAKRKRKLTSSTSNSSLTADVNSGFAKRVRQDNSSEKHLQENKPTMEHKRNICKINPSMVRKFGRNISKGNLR
KIF18A, sequence (P02550 whole entry partner): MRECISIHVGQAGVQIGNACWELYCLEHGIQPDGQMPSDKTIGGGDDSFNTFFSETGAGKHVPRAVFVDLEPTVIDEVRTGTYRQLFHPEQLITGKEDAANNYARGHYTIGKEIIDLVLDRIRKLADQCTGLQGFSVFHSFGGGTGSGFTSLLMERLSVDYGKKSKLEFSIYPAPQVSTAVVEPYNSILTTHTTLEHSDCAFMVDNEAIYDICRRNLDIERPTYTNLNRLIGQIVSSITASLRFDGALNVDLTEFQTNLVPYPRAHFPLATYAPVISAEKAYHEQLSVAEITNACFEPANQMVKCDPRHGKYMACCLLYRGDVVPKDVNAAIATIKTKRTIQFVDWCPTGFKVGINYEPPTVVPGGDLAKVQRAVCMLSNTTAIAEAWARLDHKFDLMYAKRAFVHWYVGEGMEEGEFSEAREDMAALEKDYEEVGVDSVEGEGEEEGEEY
KIF18A, sequence (P02554 whole entry partner): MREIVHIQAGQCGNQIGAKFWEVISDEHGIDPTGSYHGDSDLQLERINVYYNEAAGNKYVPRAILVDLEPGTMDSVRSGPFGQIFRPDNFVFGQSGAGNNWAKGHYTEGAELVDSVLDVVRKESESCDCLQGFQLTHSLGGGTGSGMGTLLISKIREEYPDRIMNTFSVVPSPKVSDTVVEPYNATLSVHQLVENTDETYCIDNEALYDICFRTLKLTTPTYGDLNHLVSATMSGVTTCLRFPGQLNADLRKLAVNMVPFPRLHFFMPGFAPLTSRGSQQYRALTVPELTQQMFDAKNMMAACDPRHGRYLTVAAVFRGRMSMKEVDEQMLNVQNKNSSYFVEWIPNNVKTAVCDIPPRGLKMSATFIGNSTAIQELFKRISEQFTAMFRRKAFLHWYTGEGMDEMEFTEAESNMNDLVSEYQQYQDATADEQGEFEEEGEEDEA

Usually IC50 stands for the point on the concentration scale where inhibition reaches its midpoint. Lower therefore signals greater potency in that assay. As a reminder, the AUC is concentration integrated over time. Broadly, the Cmax is the highest concentration seen after dosing. With `O=C(Nc1cccc2c1nc1n2CCOC1)c1ccc(NS(=O)(=O)CCO)cc1N1CCC(=C(F)F)CC1` [Example 322, 2-(4-(difluoromethylene)piperidin-1-yl)-N-(3,4-dihydro-1H-benzo[4,5]imidazo[2,1-c][1,4]oxazin-9-yl)-4-((2-hydroxyethyl)sulfonamido)benzamide], the IC50 in data set [1] is ≤ 50 nM; in data set [2] (Homo sapiens, OVCAR-3, 240 h), ≤ 50 nM. Also, the AUC in data set [3] (read-out: AUC) turned out to be 12400 ng·h/mL. In addition, in data set [3] (read-out: Cmax), the Cmax came to 2420 ng/mL.
For the compound `Cc1cc(NC(=O)c2ccc(NS(=O)(=O)CCO)cc2N2CCC(=C(F)F)CC2)c2cc3n(c2c1)CC(C)(C)OC3` [Example 467, 2-(4-(difluoromethylene)piperidin-1-yl)-4-((2-hydroxyethyl)sulfonamide)-N-(3,3,7-trimethyl-3,4-dihydro-1H-[1,4]oxazino[4,3-a]indol-9-yl)benzamide], the IC50 in data set [1] and in data set [2] was 50 to 500 nM each time.
For the compound `COc1ccc(NC(=O)c2ccc(NS(=O)(=O)CCO)cc2N2CCC(=C(F)F)CC2)c2cc3n(c12)CCC(F)(F)C3` [Example 477, N-(8,8-difluoro-4-methoxy-6,7,8,9-tetrahydropyridino[1,2-a]indol-1-yl)-2-(4-(difluoromethylene)piperidin-1-yl)-4-((2-hydroxyethyl)sulfonamido)benzamide], the IC50 was 50 to 500 nM in data set [1] and ≤ 50 nM in data set [2] (Homo sapiens, OVCAR-3, 240 h).
For the compound `COc1ccc(NC(=O)c2ccc(NS(=O)(=O)CCO)cc2N2CCC3(CC2)CC3)c2cc3n(c12)CCC(F)(F)C3OC` (stereo not shown) [Example 479, N-(8,8-difluoro-4,9-dimethoxy-6,7,8,9-tetrahydropyridino[1,2-a]indol-1-yl)-4-((2-hydroxyethyl)sulfonamido)-2-(6-azaspiro[2.5]oct-6-yl)benzamide], the IC50 in data set [1] was 50 to 500 nM; in data set [2] (Homo sapiens, OVCAR-3, 240 h), 50 to 500 nM.
For `COc1ccc(NC(=O)c2ccc(NS(=O)(=O)CCO)cc2N2CCC3(CC2)CC3)c2cc3n(c12)CCC(F)(F)C3O` (stereo not shown) [Example 482, N-(8,8-difluoro-9-hydroxy-4-methoxy-6,7,8,9-tetrahydropyridino[1,2-a]indol-1-yl)-4-((2-hydroxyethyl)sulfonamido)-2-(6-azaspiro[2.5]oct-6-yl)benzamide], the IC50 in data set [1] is ≤ 50 nM; in data set [2] (Homo sapiens, OVCAR-3, 240 h), ≤ 50 nM.
With `COc1ccc(NC(=O)c2ccc(NS(=O)(=O)CCO)cc2N2CCC3(CC2)CC3)c2nc3n(c12)CC(C)(C)OC3` [Example 488], the IC50 is 50 to 500 nM in data set [1] and ≤ 50 nM in data set [2].
For the compound `COc1ccc(NC(=O)c2ccc(NS(=O)(=O)CCO)cc2N2CCC(=C(F)F)CC2)c2nc3n(c12)CC(C)(C)OC3` [Example 489], the IC50 in data set [1] was 50 to 500 nM; in data set [2] (Homo sapiens, OVCAR-3, 240 h), ≤ 50 nM.
Regarding `CC1(C)Cn2c(cc3c(NC(=O)c4ccc(NS(=O)(=O)CCO)cc4N4CCC5(CC4)CC5)ccc(F)c32)CO1` [Example 519, N-(6-fluoro-3,3-dimethyl-3,4-dihydro-1H-[1,4]oxazinyl[4,3-a]indol-9-yl)-4-((2-hydroxyethyl)sulfanilamido)-2-(6-azaspiro[2.5]oct-6-yl)benzamide], the IC50 in data set [1] and in data set [2] was 50 to 500 nM in each case.
Turning to `CC1(C)Cn2c(cc3c(NC(=O)c4ccc(NS(=O)(=O)CCO)cc4N4CCC(=C(F)F)CC4)ccc(F)c32)CO1` [Example 520, 2-(4-(difluoromethylene)piperidin-1-yl)-N-(6-fluoro-3,3-dimethyl-3,4-dihydro-1H-[1,4]oxazino[4,3-a]indol-9-yl)-4-((2-hydroxyethyl)sulfonamido)benzamide], the IC50 in data set [1] is 50 to 500 nM; in data set [2] (Homo sapiens, OVCAR-3, 240 h), 50 to 500 nM.
With `CC1(C)Cn2c(cc3c(NC(=O)c4ccc(NS(=O)(=O)CCO)cc4N4CCC5(CC4)CC5)ccc(Cl)c32)CO1` [Example 521, 2-(6-azaspiro[2.5]oct-6-yl)-N-(6-chloro-3,3-dimethyl-3,4-dihydro-1H-[1,4]oxazino[4,3-a]indol-9-yl)-4-{[(2-hydroxyethyl)sulfonamide]}benzamide], the IC50 in data set [1] and in data set [2] was 50 to 500 nM in each case.
Take `Cc1ccc(NC(=O)c2ccc(NS(=O)(=O)CCO)cc2N2CCC3(CC2)CC3)c2cc3n(c12)CC(C)(C)OC3` [Example 525]: the values for the IC50 in data set [1] and in data set [2] were 50 to 500 nM and ≤ 50 nM, respectively.
On to `Cc1ccc(NC(=O)c2ccc(NS(=O)(=O)CCO)cc2N2CCC(=C(F)F)CC2)c2cc3n(c12)CC(C)(C)OC3` [Example 526], for which the IC50 in data set [1] lay within 50 to 500 nM; in data set [2] (Homo sapiens, OVCAR-3, 240 h), 50 to 500 nM.
On to `CCNC(=O)c1ccc(NC(=O)c2ccc(NS(=O)(=O)CCO)cc2N2CCC3(CC2)CC3)c2cc3n(c12)CC(C)(C)OC3` [Example 527], for which the IC50 was 50 to 500 nM in data set [1] and ≤ 50 nM in data set [2] (Homo sapiens, OVCAR-3, 240 h).
The like results for `CCNC(=O)c1ccc(NC(=O)c2ccc(NS(=O)(=O)CCO)cc2N2CCC(=C(F)F)CC2)c2cc3n(c12)CC(C)(C)OC3` [Example 528] were, in that order, 50 to 500 nM and ≤ 50 nM.
`Cn1cnc(-c2ccc(NC(=O)c3ccc(NS(=O)(=O)CCO)cc3N3CCC4(CC3)CC4)c3cc4n(c23)CC(C)(C)OC4)c1` [Example 529]: the IC50 was 50 to 500 nM in data set [1] and ≤ 50 nM in data set [2] (Homo sapiens, OVCAR-3, 240 h).
For `CC(C)Oc1ccc(NC(=O)c2ccc(NS(=O)(=O)CCO)cc2N2CCC3(CC2)CC3)c2cc3n(c12)CC(C)(C)OC3` [Example 531, 4-((2-hydroxyethyl)sulfonamido)-N-(6-isopropoxy-3,3-dimethyl-3,4-dihydro-1H-[1,4]oxazinyl[4,3-a]indol-9-yl)-2-(6-azaspiro[2.5]oct-6-yl)benzamide], in that order: 50 to 500 nM and 50 to 500 nM.
In the case of `CC(C)Oc1ccc(NC(=O)c2ccc(NS(=O)(=O)CCO)cc2N2CCC(=C(F)F)CC2)c2cc3n(c12)CC(C)(C)OC3` [Example 532, 2-(4-(difluoromethylene)piperidin-1-yl)-4-((2-hydroxyethyl)sulfonamido)-N-(6-isopropoxy-3,3-dimethyl-3,4-dihydro-1H-[1,4]oxazinyl[4,3-a]indol-9-yl)benzamide], the half-inhibitory concentration (IC50) in data set [1] and in data set [2] was 50 to 500 nM in each case.
Take `CCOc1ccc(NC(=O)c2ccc(NS(=O)(=O)CCO)cc2N2CCC(=C(F)F)CC2)c2cc3n(c12)CC(C)(C)OC3` [Example 536, 2-(4-(difluoromethylene)piperidin-1-yl)-N-(6-ethoxy-3,3-dimethyl-3,4-dihydro-1H-[1,4]oxazino[4,3-a]indol-9-yl)-4-((2-hydroxyethyl)sulfonamido)benzamide]: the IC50 fell in the range of 50 to 500 nM in data set [1] and 50 to 500 nM in data set [2] (Homo sapiens, OVCAR-3, 240 h).
Take `COc1ccc(C(=O)Nc2ccc(NS(=O)(=O)CCO)cc2N2CCC3(CC2)CC3)c2cc3n(c12)CC(C)(C)OC3` [Example 565]: the IC50 in data set [1] was 50 to 500 nM; in data set [2], ≤ 50 nM.
Take `COc1ccc(C(=O)Nc2ccc(NS(=O)(=O)CCO)cc2N2CCC(=C(F)F)CC2)c2cc3n(c12)CC(C)(C)OC3` [Example 566]: the IC50 in data set [1] was ≤ 50 nM; in data set [2] it was 50 to 500 nM.
On to `CC1(C)Cn2c(cc3c(NC(=O)c4ccc(NS(=O)(=O)CCO)cc4N4CCC5(CC4)CC5)ccc(OC(F)(F)F)c32)CO1` [Example 573], for which the IC50 in data set [1] is ≤ 50 nM; in data set [2] (Homo sapiens, OVCAR-3, 240 h) it was 50 to 500 nM.
For the compound `CC1(C)Cn2c(cc3c(NC(=O)c4ccc(NS(=O)(=O)CCO)cc4N4CCC(=C(F)F)CC4)ccc(OC(F)(F)F)c32)CO1` [Example 574], the IC50 lay within 50 to 500 nM in data set [1] and 50 to 500 nM in data set [2] (Homo sapiens, OVCAR-3, 240 h).
Consider `[2H]C([2H])([2H])Oc1ccc(NC(=O)c2ccc(NS(=O)(=O)CCO)cc2N2CCC3(CC2)CC3)c2cc3n(c12)CC(C)(C)OC3` [Example 575], for which the IC50 is 50 to 500 nM in data set [1] and ≤ 50 nM in data set [2] (Homo sapiens, OVCAR-3, 240 h).
With `[2H]C([2H])([2H])Oc1ccc(NC(=O)c2ccc(NS(=O)(=O)CCO)cc2N2CCC(=C(F)F)CC2)c2cc3n(c12)CC(C)(C)OC3` [Example 576], the IC50 was 50 to 500 nM in data set [1] and ≤ 50 nM in data set [2] (Homo sapiens, OVCAR-3, 240 h).
As for `O=C(Nc1ccc(OC(F)(F)F)c2c1cc1n2CCC(F)(F)C1)c1ccc(NS(=O)(=O)CCO)cc1N1CCC2(CC1)CC2` [Example 582], the IC50 in data set [1] was ≤ 50 nM; in data set [2] (Homo sapiens, OVCAR-3, 240 h), 50 to 500 nM.
Regarding `O=C(Nc1ccc(OC(F)(F)F)c2c1cc1n2CCC(F)(F)C1)c1ccc(NS(=O)(=O)CCO)cc1N1CCC(=C(F)F)CC1` [Example 585], the IC50 in data set [1] was 50 to 500 nM; in data set [2] (Homo sapiens, OVCAR-3, 240 h), 50 to 500 nM.
As for `O=C(Nc1ccc(OC(F)F)c2c1cc1n2CCC(F)(F)C1)c1ccc(NS(=O)(=O)CCO)cc1N1CCC(=C(F)F)CC1` [Example 586], the IC50 in data set [1] fell in the range of 50 to 500 nM; in data set [2] (Homo sapiens, OVCAR-3, 240 h), 50 to 500 nM.
Take “N-(1-(cyclopropylmethyl)-1H-indol-4-yl)-4-methoxy-2-(6-azaspiro[2.5]octan-6-yl)benzamide [Example 127]”: the IC50 in data set [1] and in data set [2] was ≤ 50 nM in each case.
